Laboratory results published in patent US7365200B2, “Thienopyridinone derivatives as macrophage migration inhibitory factor inhibitors” (Avanir Pharmaceuticals, priority 2005, dated 2008).

tested on: not given; assay: not given; settings: not given

melting point | Compound
240 °C | CCOC(=O)c1c(N2CCN(C(=O)c3cccs3)CC2)c2sccc2n(CC(=O)c2ccccc2)c1=O [Compound 7, 5-oxo-4-(2-oxo-2-phenyl-ethyl)-7-[4-(thiophene-2-carbonyl)-piperazin-1-yl]4,5-dihydro-thieno[3,2-b]pyridine-6-carboxylic acid ethyl ester]
95 to 113 °C | CCOC(=O)c1c(N2CCN(C(=O)c3cccs3)CC2)c2sccc2n(Cc2cccc(F)c2)c1=O [Compound 9, 4-(3-fluoro-benzyl)-5-oxo-7-[4-(thiophene-2-carbonyl)-piperazin-1-yl]-4,5-dihydro-thieno[3,2-b]pyridine-6-carboxylic acid ethyl ester]
246 °C | CCOC(=O)c1c(N2CCN(C(=O)c3ccco3)CC2)c2sccc2n(CC(=O)c2ccccc2)c1=O [Compound 13, 7-[4-(furan-2-carbonyl)-piperazin-1-yl]-5-oxo-4-(2-oxo-2-phenyl-ethyl)-4,5-dihydro-thieno[3,2-b]pyridine-6-carboxylic acid ethyl ester]
286 °C | N#Cc1c(N2CCN(C(=O)c3cccs3)CC2)c2sccc2n(Cc2ccc(F)cc2)c1=O [Compound 28, 4-(4-fluoro-benzyl)-5-oxo-7-[4-(thiophene-2-carbonyl)-piperazin-1-yl]-4,5-dihydro-thieno[3,2-b]pyridine-6-carbonitrile]
300 °C | N#Cc1c(N2CCN(C(=O)c3cccs3)CC2)c2sccc2n(CC(=O)c2ccccc2)c1=O [Compound 30, 5-oxo-4-(2-oxo-2-phenyl-ethyl)-7-[4-(thiophene-2-carbonyl)-piperazin-1-yl]-4,5-dihydro-thieno[3,2-b]pyridine-6-carbonitrile]
227 °C | CCOC(=O)c1c(N2CCN(C(=O)c3cccs3)CC2)c2cscc2n(Cc2ccc(F)cc2)c1=O [Compound 42, 4-(4-fluoro-benzyl)-5-oxo-7-[4-(thiophene-2-carbonyl)-piperazin-1-yl]-4,5-dihydro-2-thia-4-aza-indene-6-carboxylic acid ethyl ester]
308 °C | N#Cc1c(N2CCN(C(=O)c3cccs3)CC2)c2cscc2n(CC(=O)c2ccccc2)c1=O [Compound 48, 5-oxo-4-(2-oxo-2-phenyl-ethyl)-7-[4-(thiophene-2-carbonyl)-piperazin-1-yl]-4,5-dihydro-2-thia-4-aza-indene-6-carbonitrile]
238 °C | N#Cc1c(N2CCN(C(=O)c3cccs3)CC2)c2cscc2n(Cc2ccc(F)cc2)c1=O [Compound 49, 4-(4-fluoro-benzyl)-5-oxo-7-[4-(thiophene-2-carbonyl)-piperazin-1-yl]-4,5-dihydro-2-thia-4-aza-indene-6-carbonitrile]
263 °C | COC(=O)c1ccc(Cn2c(=O)c(C#N)c(N3CCN(C(=O)c4cccs4)CC3)c3cscc32)cc1 [Compound 50, 4-{6-cyano-5-oxo-7-[4-(thiophene-2-carbonyl)-piperazin-1-yl]-5H-2-thia-4-aza-indene-4-ylmethyl}-benzoic acid methyl ester]
282 °C | N#Cc1c(N2CCN(C(=O)c3cccs3)CC2)c2cscc2n(-c2cccnc2)c1=O [Compound 52, 5-oxo-4-pyridine-3-yl-7-[4-(thiophene-2-carbonyl)-piperazin-1-yl]-4,5-dihydro-2-thia-4-aza-indene-6-carbonitrile]
223 °C | Cc1csc2c1c(N1CCN(C(=O)c3cccs3)CC1)c(C#N)c(=O)n2Cc1ccccc1 [Compound 67, 7-benzyl-3-methyl-6-oxo-4-[4-(thiophene-2-carbonyl)-piperazin-1-yl]-6,7-dihydro-thieno[2,3-b]pyridine-5-carbonitrile]

molecular target: T1, MIF produced by THP-1 cells (Homo sapiens, UniProt P14174); assay: Antibody binding assay of MIF inhibitors (ELISA, 96-well format); settings: LPS-stimulated THP-1 cell supernatant incubated with compound; MIF monoclonal antibody capture ELISA; read-out: In vitro MIF IC50
T1 construct: THP-1 cell supernatant was collected and incubated with a candidate compound; endogenous in cells; host or cells: THP-1 cells, LPS-stimulated, culture supernatant
T1 sequence (P14174 2-115 limits assumed): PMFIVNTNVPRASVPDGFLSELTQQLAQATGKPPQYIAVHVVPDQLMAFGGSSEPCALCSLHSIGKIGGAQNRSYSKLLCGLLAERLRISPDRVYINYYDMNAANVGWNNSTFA
Experimental: An antibody binding assay for MIF inhibitors was performed on selected compounds in a 96-well format using MIF produced by THP-1 cells. The THP-1 cells were washed once with 250 μl of 0.1 M sodium carbonate, pH 11.4, for 1 to 2 minutes and immediately aspirated. The THP-1 cells were then washed with media containing 0.5% FBS plus 25 μg/ml heparin and then incubated in this same medium for the indicated lengths of time. The THP-1 cells were resuspended to approx. 5×10^6 cells/ml in RPMI medium containing 20 μg/ml of bacterial LPS and incubated for 18-20 hours, after which THP-1 cell supernatant was collected and incubated with a candidate compound. A 96-well ELISA plate (Costar Number 3590) was coated with a MIF monoclonal antibody (R&D Systems Catalog Number MAB289) at a concentration of 4 μg/ml for two hours at 37° C. Undiluted THP-1 cell culture supernatant incubated with the candidate compound was added to the ELISA plate for a two-hour incubation at room temperature. The wells were then washed, a biotinylated MIF polyclonal antibody (R&D Systems #AF-289-PB) was added followed by Streptavidin-HRP and a chromogenic substrate. The amount of MIF was calculated by interpolation from an MIF standard curve.

IC50 | Compound
70 nM | N#Cc1c(N2CCN(C(=O)c3cccs3)CC2)c2cscc2n(CC(=O)c2ccccc2)c1=O [Compound 101]
82 nM | N#Cc1c(N2CCN(C(=O)c3cccs3)CC2)c2cscc2n(Cc2ccc(F)cc2)c1=O [Compound 102]
437 nM | COC(=O)c1ccc(Cn2c(=O)c(C#N)c(N3CCN(C(=O)c4cccs4)CC3)c3cscc32)cc1 [Compound 103]
59 nM | N#Cc1c(N2CCN(C(=O)c3cccs3)CC2)c2cscc2n(Cc2cccnc2)c1=O [Compound 104]
53 nM | CCOC(=O)c1c(N2CCN(C(=O)c3cccs3)CC2)c2cscc2n(CC(=O)c2ccccc2)c1=O [Compound 105]
40 nM | CCOC(=O)c1c(N2CCN(C(=O)c3cccs3)CC2)c2cscc2n(Cc2ccc(F)cc2)c1=O [Compound 106]
35 nM | CCOC(=O)c1c(N2CCN(C(=O)c3cccs3)CC2)c2cscc2n(Cc2ccc(C(=O)OC)cc2)c1=O [Compound 107]
171 nM | N#Cc1c(N2CCN(C(=O)c3cccs3)CC2)c2cscc2n(-c2cccnc2)c1=O [Compound 108]
233 nM | CCOC(=O)c1c(N2CCN(C(=O)c3cccs3)CC2)c2sccc2n(Cc2ccc(F)cc2)c1=O [Compound 109]
1730 nM | N#Cc1c(N2CCN(C(=O)c3cccs3)CC2)c2sccc2n(CC(=O)c2ccccc2)c1=O [Compound 110]
254 nM | N#Cc1c(N2CCN(C(=O)c3cccs3)CC2)c2sccc2n(Cc2cccnc2)c1=O [Compound 111]
595 nM | N#Cc1c(N2CCN(C(=O)c3cccs3)CC2)c2sccc2n(Cc2cccc(F)c2)c1=O [Compound 112]
419 nM | N#Cc1c(N2CCN(C(=O)c3cccs3)CC2)c2sccc2n(Cc2ccc(F)cc2)c1=O [Compound 113]
70 nM | CCOC(=O)c1c(N2CCN(C(=O)c3cccs3)CC2)c2ccsc2n(Cc2ccccc2)c1=O [Compound 114]
11800 nM | CCOC(=O)c1c(N2CCN(C(=O)c3cccs3)CC2)c2c(C)csc2n(Cc2ccccc2)c1=O [Compound 115]
139 nM | N#Cc1c(N2CCN(C(=O)c3cccs3)CC2)c2ccsc2n(Cc2ccccc2)c1=O [Compound 116]
12300 nM | Cc1csc2c1c(N1CCN(C(=O)c3cccs3)CC1)c(C#N)c(=O)n2Cc1ccccc1 [Compound 117]
4150 nM | CCOC(=O)c1c(N2CCN(C(=O)c3ccco3)CC2)c2sccc2n(Cc2ccc(F)cc2)c1=O [Compound 119]
799 nM | CCOC(=O)c1c(N2CCN(C(=O)c3cccs3)CC2)c2sccc2n(CC(=O)c2ccccc2)c1=O [Compound 120]
146 nM | CCOC(=O)c1c(N2CCN(C(=O)c3cccs3)CC2)c2sccc2n(Cc2cccc(F)c2)c1=O [Compound 121]
5840 nM | CCOC(=O)c1c(N2CCN(C(=O)c3ccco3)CC2)c2sccc2n(Cc2cccc(F)c2)c1=O [Compound 122]
8770 nM | CCOC(=O)c1c(N2CCN(C(=O)c3ccco3)CC2)c2sccc2n(CC(=O)c2ccccc2)c1=O [Compound 123]
269 nM | CCOC(=O)c1c(N2CCN(C(=O)c3cccs3)CC2)c2sccc2n(Cc2cccnc2)c1=O [Compound 124]
387 nM | CC(C)OC(=O)c1c(N2CCN(C(=O)c3cccs3)CC2)c2sccc2n(Cc2cccc(F)c2)c1=O [Compound 125]
648 nM | CCOC(=O)c1c(N2CCN(C(=O)c3ccc(F)s3)CC2)c2sccc2n(Cc2cccc(F)c2)c1=O [Compound 126]
32 nM | CCOC(=O)c1c(N2CCN(C(=O)c3cccs3)CC2)c2cc(C)sc2n(Cc2cccc(F)c2)c1=O [Compound 127]
